The values below come from paper PMC11672294, “The Antipsychotic Drug Aripiprazole Suppresses Colorectal Cancer by Targeting LAMP2a to Induce RNH1/miR‐99a/mTOR‐Mediated Autophagy and Apoptosis” (Advanced Science, 2024).

The subject of the series is HT29. To be noted: 72 h, relative to DMSO; 10 µM. The essentials: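 HT29 viability used WST-1 reduction (2 h, 37 °C, A450) after 72 h of treatment; screening compounds were tested singly at 10 µM, with dimethyl sulfoxide as the comparison.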

Each structure is given as a SMILES string. Counter-ions that a name gives are not always drawn. Starred links: 1 amine or outer side, 2 acyl side, 3 side chain; linkers in the order of their positions; H or OH if unused. Positions of bridges follow the written chain, without caps; N, C: chain ends. Non-standard residues stand in square brackets, D forms with d. Residues, ends and D or L forms follow the SMILES beside them. *: point of attachment. hTyr(3S-OH,4S-OH,3'-OSO3H) = N[C@H](C(=O)O)[C@H](O)[C@@H](O)c1ccc(O)c(OS(=O)(=O)O)c1; Orn(4R-OH,5R-OH) = O=C([C@H](C[C@@H](O)[C@@H](O)N[*:3])N[*:1])[*:2]; Pro(3S-OH,4S-Me) = C[C@H]1CN[C@H](C(=O)O)[C@H]1O; X1 = CCCCCOc1ccc(-c2cc(-c3ccc(C(=O)*)cc3)no2)cc1; Gln(3R-OH) = NC(=O)C[C@@H](O)[C@H](N)C(=O)O; Hyp = O=C(O)[C@@H]1C[C@@H](O)CN1

For the molecule `CNC(=O)[C@@H](NC(=O)[C@H](CC(C)C)[C@H](O)C(=O)NO)C(C)(C)C` [Marimastat(BB-2516)], the “Relative cell viability (%)” value turned out to be 121.4%. Regarding `CCOC(=O)c1c(C)n(C)c2ccc(O)cc12` [Mecarbinate], the “Relative cell viability (%)” value came out at 130.3%. `Cc1cccc(CN2CCN(C(c3ccccc3)c3ccc(Cl)cc3)CC2)c1` (stereo not drawn) [Meclizine 2HCl]: the “Relative cell viability (%)” value is 130.4%. On to `Cc1ccc(Cl)c(Nc2ccccc2C(=O)O)c1Cl` [Meclofenamate Sodium], for which the “Relative cell viability (%)” value was 83.03%. On to `Cc1cccc(C(C)c2cnc[nH]2)c1C` (stereo not drawn) [Medetomidine HCl], for which the “Relative cell viability (%)” value was 57.77%. The value for `CC(=O)O[C@]1(C(C)=O)CC[C@H]2[C@@H]3C=C(C)C4=CC(=O)CC[C@]4(C)[C@H]3CC[C@@]21C` [Megestrol Acetate] was 68.07%; that for `CNC[C@H](O)[C@@H](O)[C@H](O)[C@H](O)CO` [Meglumine] was 172.9%. With `Cc1cnc(NC(=O)C2=C(O)c3ccccc3S(=O)(=O)N2C)s1` [Meloxicam], the “Relative cell viability (%)” value is 51.27%.

On to `CC12CC3CC(C)(C1)CC(N)(C3)C2` [Memantine HCl], for which the “Relative cell viability (%)” value was 108.7%. The value for `CC1=CC(=O)c2ccccc2C1=O` [Menadione] was 15.16%; that for `Sc1ncnc2nc[nH]c12` [Mercaptopurine (6-MP)] was 52.49%; that for `C[C@@H](O)[C@H]1C(=O)N2C(C(=O)O)=C(S[C@@H]3CN[C@H](C(=O)N(C)C)C3)[C@H](C)[C@H]12` [Meropenem] was 72.74%. The value for `O=S(=O)(O)CCS` [Mesna] was 56.36%; that for `C#C[C@]1(O)CC[C@H]2[C@@H]3CCc4cc(OC)ccc4[C@H]3CC[C@@]21C` [Mestranol] was 119.6%. The figure for `COc1ccccc1OCC(O)COC(N)=O` (stereo not drawn) [Methocarbamol] is 46.19%. With `COc1c2occc2cc2ccc(=O)oc12` [Methoxsalen], the “Relative cell viability (%)” value turned out to be 170.4%. The figure for `C[N+]1(C)[C@@H]2C[C@@H](OC(=O)[C@H](CO)c3ccccc3)C[C@H]1[C@@H]1O[C@@H]12` [Methscopolamine] is 132.5%; for `C[C@H]1C[C@@H]2[C@H]([C@@H](O)C[C@@]3(C)[C@H]2CC[C@]3(O)C(=O)CO)[C@@]2(C)C=CC(=O)C=C12` [Methylprednisolone] it is 42.37%; for `CCN(CC)CCNC(=O)c1cc(Cl)c(N)cc1OC` [MetoclopraMide HCl] it is 75.76%.

With `COCCc1ccc(OCC(O)CNC(C)C)cc1` (stereo not drawn) [Metoprolol Tartrate], the “Relative cell viability (%)” value is reported as 94.49%. `Cc1ncc([N+](=O)[O-])n1CCO` [Metronidazole]: the “Relative cell viability (%)” value came to 113.4%. The value for `CC[C@H](C)C(=O)O[C@H]1CCC=C2C=C[C@H](C)[C@H](CC[C@@H]3C[C@@H](O)CC(=O)O3)[C@H]21` [Mevastatin] was 86.67%; that for `Cc1cccc(C)c1OCC(C)N` (stereo not drawn) [Mexiletine HCl] was 84.85%; that for `CC1(C)S[C@@H]2[C@H](NC(=O)[C@H](NC(=O)N3CCN(S(C)(=O)=O)C3=O)c3ccccc3)C(=O)N2[C@H]1C(=O)O` [Mezlocillin Sodium] was 90.303%. With `CN1CCN2c3ccccc3Cc3ccccc3C2C1` (stereo not drawn) [Mianserin HCl], the “Relative cell viability (%)” value came to 57.17%. The figure for `CCCCCOc1ccc(-c2cc(-c3ccc(C(=O)N[C@H]4C[C@@H](O)[C@@H](O)NC(=O)[C@@H]5[C@@H](O)[C@@H](C)CN5C(=O)[C@H]([C@H](O)CC(N)=O)NC(=O)[C@H]([C@H](O)[C@@H](O)c5ccc(O)c(OS(=O)(=O)O)c5)NC(=O)[C@@H]5C[C@@H](O)CN5C(=O)[C@H]([C@@H](C)O)NC4=O)cc3)no2)cc1` [Micafungin Sodium] (X1-[Orn(4R-OH,5R-OH)]T[Hyp][hTyr(3S-OH,4S-OH,3'-OSO3H)][Gln(3R-OH)][Pro(3S-OH,4S-Me)]; lactam 1-C) is 77.58%; for `Clc1ccc(COC(Cn2ccnc2)c2ccc(Cl)cc2Cl)c(Cl)c1` (stereo not drawn) [Miconazole Nitrate] it is 184.3%. The figure for `CC#C[C@]1(O)CC[C@H]2[C@@H]3CCC4=CC(=O)CCC4=C3[C@@H](c3ccc(N(C)C)cc3)C[C@@]21C` [Mifepristone] is 46.12%. The value for `CN1CCN2c3ncccc3Cc3ccccc3C2C1` (stereo not drawn) [Mirtazapine] was 177.9%; that for `Clc1ccc(C(c2ccccc2Cl)C(Cl)Cl)cc1` (stereo not drawn) [Mitotane] was 63.98%. Turning to `CCOC(=O)[C@H](CCc1ccccc1)N[C@@H](C)C(=O)N1Cc2cc(OC)c(OC)cc2C[C@H]1C(=O)O` [Moexipril HCl], the “Relative cell viability (%)” value worked out at 110.2%. The value for `C[C@@H]1C[C@H]2[C@@H]3CCC4=CC(=O)C=C[C@]4(C)[C@@]3(Cl)[C@@H](O)C[C@]2(C)[C@@]1(OC(=O)c1ccco1)C(=O)CCl` [Mometasone furoate] was 144.2%. The value for `CC(C)(O)c1ccccc1CC[C@@H](SCC1(CC(=O)O)CC1)c1cccc(/C=C/c2ccc3ccc(Cl)cc3n2)c1` [Montelukast Sodium] was 74.85%; that for `CCOc1cc(N)c(Cl)cc1C(=O)NCC1CN(Cc2ccc(F)cc2)CCO1` (stereo not drawn) [Mosapride Citrate] was 38.47%; that for `CCCN(CCC)C(=O)C1=Cc2ccc(-c3ccc(C(=O)N4CCCC4)cc3)cc2N=C(N)C1` [Motolimod (VTX-2337)] was 31.62%. The value for `COc1nc(C)nc(Cl)c1N=C1NCCN1` [Moxonidine] was 116.7%; that for `FC(F)(F)c1ccc(/C=C/c2nc(COc3ccc(CCCCn4ccnn4)cc3)co2)cc1` [Mubritinib (TAK 165)] was 116.7%; that for `C/C(=C\C(=O)OCCCCCCCCC(=O)O)C[C@@H]1OC[C@H](C[C@@H]2O[C@H]2[C@@H](C)[C@H](C)O)[C@@H](O)[C@H]1O` [Mupirocin] was 92.12%.

`N=C(N)c1ccc2cc(OC(=O)c3ccc(N=C(N)N)cc3)ccc2c1` [Nafamostat Mesylate]: the “Relative cell viability (%)” value turned out to be 66.51%. As for `COc1ccccc1N1CCN(CC(O)COc2cccc3ccccc23)CC1` (stereo not drawn) [Naftopidil], the “Relative cell viability (%)” value turned out to be 100.8%.

Regarding `CCn1cc(C(=O)O)c(=O)c2ccc(C)nc21` [Nalidixic acid], the “Relative cell viability (%)” value was found to be 106.7%. The value for `C=CCN1CC[C@]23c4c5ccc(O)c4O[C@H]2C(=O)CC[C@@]3(O)[C@H]1C5` [Naloxone HCl] was 95.63%; that for `O=C1CC[C@@]2(O)[C@H]3Cc4ccc(O)c5c4[C@@]2(CCN3CC2CC2)[C@H]1O5` [Naltrexone HCl] was 104.3%. As to `CC(=O)c1cc2c(o1)C(=O)c1ccccc1C2=O` [Napabucasin], the “Relative cell viability (%)” value came out at 0%. The figure for `Cc1cccc(C)c1NC(=O)CN1CCCC1=O` [Nefiracetam] is 192.8%; for `COc1nc(N)nc2c1ncn2[C@@H]1O[C@H](CO)[C@@H](O)[C@@H]1O` [Nelarabine] it is 86.76%. For the molecule `Cc1c(O)cccc1C(=O)N[C@@H](CSc1ccccc1)[C@H](O)CN1C[C@H]2CCCC[C@H]2C[C@H]1C(=O)NC(C)(C)C` [Nelfinavir Mesylate], the “Relative cell viability (%)” value was 23.94%. The figure for `NC(=O)Cc1cccc(C(=O)c2ccccc2)c1N` [Nepafenac] is 77.41%; for `CCOc1cc2ncc(C#N)c(Nc3ccc(OCc4ccccn4)c(Cl)c3)c2cc1NC(=O)/C=C/CN(C)C` [Neratinib (HKI-272)] it is 97.84%. The figure for `Cc1ccnc2c1NC(=O)c1cccnc1N2C1CC1` [Nevirapine] is 94.49%; for `COC(=O)C1=C(C)NC(C)=C(C(=O)OCCN(C)Cc2ccccc2)C1c1cccc([N+](=O)[O-])c1` (stereo not drawn) [Nicardipine HCl] it is 83.03%. Consider `O=C(NCCO[N+](=O)[O-])c1cccnc1` [Nicorandil], for which the “Relative cell viability (%)” value stood at 198.8%. Take `NC(=O)c1cccnc1` [Nicotinamide (Vitamin B3)]: the “Relative cell viability (%)” value was 113.7%.

Consider `O=C(O)c1cccnc1` [Nicotinic Acid], for which the “Relative cell viability (%)” value is recorded as 70.34%. For `O=C(O)c1cccnc1Nc1cccc(C(F)(F)F)c1` [Niflumic acid], the “Relative cell viability (%)” value is 95.63%. In the case of `O=C(N/N=C/c1ccc([N+](=O)[O-])o1)c1ccc(O)cc1` [Nifuroxazide], the “Relative cell viability (%)” value is 43.03%. For the molecule `COC(=O)C1=C(C#N)NC(C)=C(C(=O)OC(C)C)C1c1cccc([N+](=O)[O-])c1` (stereo not drawn) [Nilvadipine], the “Relative cell viability (%)” value is recorded as 81.07%. The figure for `CS(=O)(=O)Nc1ccc([N+](=O)[O-])cc1Oc1ccccc1` [Nimesulide] is 191.7%; for `COCCOC(=O)C1=C(C)NC(C)=C(C(=O)OC(C)C)C1c1cccc([N+](=O)[O-])c1` (stereo not drawn) [Nimodipine] it is 53.81%. Consider `COC(=O)C1=C(C)NC(C)=C(C(=O)OCC(C)C)C1c1ccccc1[N+](=O)[O-]` (stereo not drawn) [Nisoldipine], for which the “Relative cell viability (%)” value was 56.36%. Regarding `CNC(=C[N+](=O)[O-])NCCSCc1csc(CN(C)C)n1` [Nizatidine], the “Relative cell viability (%)” value was found to be 77.97%. `NC[C@H](O)c1ccc(O)c(O)c1` [Noradrenaline bitartrate monohydrate]: the “Relative cell viability (%)” value is 75.24%. Regarding `C[C@@H]1[C@H](O)[C@@H](C)/C=C/C=C/CC/C=C/C=C/C=C/C=C/[C@H](O[C@H]2O[C@@H](C)[C@H](O)[C@@H](N)[C@H]2O)C[C@@H]2O[C@](O)(C[C@@H](O)[C@H](O)CC[C@@H](O)C[C@@H](O)C[C@@H](O)CC(=O)O[C@H]1C)C[C@H](O)[C@H]2C(=O)O` [Nystatin (Fungicidin)], the “Relative cell viability (%)” value came out at 170.8%.
